Measurements as given in patent publication US20060122153A1, “Antineoplastic ether lipid compounds with modifications at the sn-2 carbon” (priority 2003, published 2006).

How the values were obtained:
[1] = test system: DEVDase activity (Caspase 3) in Jurkat T cells; assay: DEVDase activity in Jurkat T cells; assay type: cell-based; settings: for % L-ET18OCH3 (DEVDase, 6 hrs): Jurkat T cells; for DEVDase activity compared to ET-18-OCH3 (in words): Jurkat T cell line
Procedure: Suspension cells were seeded at density 3.2×10^5 cells per mL in RPMI-1640 medium (Bio-Whittaker) supplemented with 10% heat inactivated FBS (Bio-Whittaker). Cells were pre-incubated overnight prior to treatment with the ether lipid compounds of the invention. At treatment time cell density was 5×10^5 cells per mL. Cells were incubated with the ether lipid compounds of the invention for various periods of time, usually 6 hours. Cells were collected, washed with 1×DPBS and resuspended in 110 μl of Buffer A (10 mM BEPES-KOH, pH 7.4, 2 mM EDTA, 0.1% CHAPS, 5 mM DTT, 1:100 dilution of protease inhibitors cocktail (Sigma)-DTT and protease inhibitors should be added just before use). After 10 min incubation on ice in order to lyse cells, samples were frozen on dry ice/ethanol and kept at −20° C. until analysis.
At the time of analysis of DEVDase activity frozen pellets were kept on ice until thawed and after vigorous vortexing samples were centrifuged at 14,000 rpm for 6 min.; Supernatant was transferred into another tube and 2 μl, in triplicates, were used for protein measurement using Bradford reagent (Bio-Rad).
Measurement of DEVDase activity was carried out in 100 μl volume, where 10 μg of protein was delivered in 50 μl of Buffer A and 40 μM of substrate Ac-DEVD-AMC was also delivered in 50 μl of Buffer A. All measurements were done in triplicates. Reaction was carried out for 1 hour and generation of fluorescent product of reaction (aminomethylcoumarin) was measured by reading fluorescence at 1em 460 nm (1ex 360 nm). Changes in DEVDase activity were calculated after subtraction of background fluorescence of substrate incubated without proteins, and were expressed as percent of control (DEVDase activity in untreated cells). Average of DEVDase activity, calculated from few independent experiments, was used to calculate percent of L-ether lipid-induced DEVDase activity.

K-562 = assay: NCI growth inhibition screen, leukemia panel; assay type: cell-based, human; set-up: key to Performance as compared to ET-18-O—CH3: = means equivalent activity; + means that it appears to be significantly better (i.e., by ˜2x); < means it appears to be less active than ET18OCH3 (˜2x); a combination like =/+ or </+ means that activity is dependent upon the isomer; a combination like =/+ or </+ means that activity is dependent upon the isomer; settings: for Performance as compared to ET-18-O—CH3: K-562, Leukemia, from GI50s
Procedure: (§1) Candidates deemed suitable for in vivo testing were then synthesized in large scale quantities and some of this material was sent to the NCI's Developmental Therapeutics Program for a battery of growth inhibitory studies against various human tumor cell lines (60 cell lines, 9 different panels). The remainder of the material was used to assess in vivo efficacy using murine tumor models. Additionally, studies were conducted on the lead candidates to discern mechanism of action with particular emphasis on these agents apoptotic ability as measured by caspase 3 activity. The details (materials and methods) for these various assays are described further in the following discussion.
(§2) Ten compounds were also sent to NCI's Drug Discovery Program for screening against numerous human tumor cell lines (9 panels total: renal ovarian, colon, CNS, non-small cell lung, leukemia, breast, melanoma, and prostate). The data are shown in FIGS. 2a-i which also include data regarding D- and L-ET-18-OCH3 (listed as L-EL and D-EL in the figures). Upon examining the data, one is struck by how 1R and 1a′S standout in comparison to the other compounds, especially for the renal, ovarian, colon, and CNS panels.

RPMI-8226 = assay: NCI growth inhibition screen, leukemia panel; assay type: cell-based, human; set-up: key to Performance as compared to ET-18-O—CH3: = means equivalent activity; + means that it appears to be significantly better (i.e., by ˜2x); < means it appears to be less active than ET18OCH3 (˜2x); a combination like =/+ or </+ means that activity is dependent upon the isomer; a combination like =/+ or </+ means that activity is dependent upon the isomer; settings: for Performance as compared to ET-18-O—CH3: RPMI-8226, Leukemia, from GI50s; for activity (in words): RPMI-8226 cell line, NCI screen
Procedure: as §1, §2

| SMILES | % L-ET18OCH3 (DEVDase, 6 hrs) ([1]; 10 μM ether lipid) | % L-ET18OCH3 (DEVDase, 6 hrs) ([1]; 20 μM ether lipid) | % L-ET18OCH3 (DEVDase, 6 hrs) ([1]; 30 μM ether lipid) | DEVDase activity compared to ET-18-OCH3 (in words) [1] | Performance as compared to ET-18-O—CH3 (K-562) | Performance as compared to ET-18-O—CH3 (RPMI-8226) | activity (in words) (RPMI-8226) | activity (in words) (K-562; K-562 cell line, NCI screen) |
| --- | --- | --- | --- | --- | --- | --- | --- | --- |
| CCCCCCCCCCCCCCCCCCOC[C@@H](COP(=O)([O-])OCC[N+](C)(C)C)OS(C)(=O)=O [1a′S] | 58.9 ± 9.1% | 55.5 ± 8.3% | 61.3 ± 9.1% | less DEVDase activity than ET-18-OCH3 | =/+ | </+ | poor activity | – |
| CCCCCCCCCCCCCCCCCCOCC(COP(=O)([O-])OCC[N+](C)(C)C)OS(C)(=O)=O (stereo not drawn) [Compound 1aR] | 56.6 ± 8.3% | 52.4 ± 8.6% | 51.6 ± 8.1% | less DEVDase activity than ET-18-OCH3 | =/+ | =/+ | – | – |
| CCCCCCCCCCCCCCCCCCOCC(COP(=O)([O-])OCC[N+](C)(C)C)OC [D-ET18OCH3, 1-O-octadecyl-2-O-methyl-glycerophosphocholine, reference compound] | 79.3 ± 9.7% | 89.2 ± 12.2% | 92.1 ± 11.8% | – | – | – | extremely poor activity | extremely poor activity |
